Source: publication PMC5039936 (Clinical Pharmacology and Therapeutics, 2015)
Several values for one entry are separate records, joined by “and”; a condition that tells them apart may be missing. Equal values may be shown once.

Tests used:
[1] = In vitro clearance in human liver microsomes; format: in vitro ADME
[2] = Population PK model of plasma orteronel in patients with mCRPC; format: in vivo, human
[3] = In vitro clearance in human hepatocytes; format: in vitro ADME
[4] = Plasma protein binding by rapid equilibrium dialysis in study C21010; format: in vitro ADME; conditions: human, oral, 200 mg, mean percent unbound of orteronel in plasma, range across the renal function groups
[5] = ref unpublished data, Suri, A., Pusalkar, S., Li, Y., & Prakash, S. Clin. Pharmacol. Drug Development 2015, cited from earlier work
[6] = Phase 1 renal impairment study C21010, urine PK; format: in vivo, human; conditions: geometric mean; for CL renal: human, urine, oral, 200 mg, CLrenal
[7] = Phase 1 single-dose renal impairment study C21010, plasma PK; format: in vivo, human; conditions: for AUC(0-inf): human, plasma, po, 200 mg, AUCinf, geometric LSM, single oral 200 mg dose; for increase in mean AUCinf compared with normal renal function: single 200 mg dose

in vitro clearance [1]: no appreciable in vitro clearance
ka ([2]; base model, mean (SD)): 2.1 (0.2) h^−1
predicted decrease in CL/F ([2]; final PK model, reduction in CLcr from 92 to 46 mL/min): 28%
BILI on ka ([2]; final model covariate effect, mean (SD)): –0.46 (0.20)
CL/F ([2]; final model, mean (SD)): 17.7 L/h
V/F ([2]; final model, mean (SD)): 261 L
ka ([2]; final model, mean (SD)): 2.2 (0.3) h^−1
in vitro clearance [3]: no appreciable in vitro clearance
fraction unbound at 2 h [4]: 0.547 to 0.589
CL renal ([6]; mild chronic RI): 97.8 mL/min
CL renal ([6]; moderate chronic RI): 49.2 mL/min
CL renal ([6]; normal renal function): 158 mL/min
CL renal ([6]; severe chronic RI): 25.8 mL/min
fraction of dose excreted as unchanged orteronel (Fe) ([6]; mild chronic RI): 33.1%
fraction of dose excreted as unchanged orteronel (Fe) ([6]; moderate chronic RI): 19.4%
fraction of dose excreted as unchanged orteronel (Fe) ([6]; normal renal function): 44.9%
fraction of dose excreted as unchanged orteronel (Fe) ([6]; severe chronic RI): 13.8%
slope of regression of CL/F vs CLcr ([7]; CL/F = 10.90 + 0.101*CLcr, r2 = 0.2177): 0.101
AUC(0-inf) ([7]; mild chronic renal impairment (CLcr ≥60–89 mL/min)): 11300 ng·h/mL
AUC(0-inf) ([7]; moderate chronic renal impairment (CLcr ≥30–59 mL/min)): 13100 ng·h/mL
AUC(0-inf) ([7]; normal renal function (CLcr ≥90 mL/min), fasted): 9500 ng·h/mL
AUC(0-inf) ([7]; severe chronic renal impairment (CLcr ≥15–29 mL/min)): 17800 ng·h/mL
increase in mean AUCinf compared with normal renal function ([7]; mild chronic RI): 18.6% and 19%
increase in mean AUCinf compared with normal renal function ([7]; moderate chronic RI): 38% and 38.4%
increase in mean AUCinf compared with normal renal function ([7]; severe chronic RI): 87% and 87.1%
SMILES: CNC(=O)c1ccc2cc([C@@]3(O)CCn4cncc43)ccc2c1 [orteronel]
share of orteronel CL characterized as renal CL ([5]; intact parent compound in urine): 53%
share of CL characterized as other CL ([5]; metabolites formed via hydrolysis, neither renal nor hepatic): 19%
